Data as given in US20250092016A1, “COMPOUNDS AND COMPOSITIONS FOR THE TREATMENT OF CORONAVIRAL RELATED DISEASES” (priority 2021, published 2025).
Like-named read-outs stand apart in the source and are kept apart here.

Biological target: SARS-CoV-2 main protease (M^pro) (Severe acute respiratory syndrome coronavirus 2, UniProt P0DTD1)
Test: Rapid-Fire MS Biochemical Assay measuring Mpro activity (5 nM Mpro)
Settings: Mpro inhibition, 5 μM substrate peptide, 120 min
[1] = Table 1B, read-out: Rapid-Fire Assay IC50
[2] = Rapid-Fire Assay IC50, Table 1B

Row | SMILES | IC50 [1] [nM] | IC50 [2] [nM]
1 | COc1ccc(Cl)cc1N1C[C@H](C#N)N(c2cncc3ccccc23)C1=O (single isomer, unassigned) [Compound 115a] | < 20 | –
2 | COc1ccc(Cl)cc1N1C[C@@H](C#N)N(c2cncc3ccccc23)C1=O (single isomer, unassigned) [Compound 115b] | > 1000 | –
3 | Cc1ccc(C#N)c(N2C[C@H](C#N)N(c3cncc4ccccc34)C2=O)c1 (single isomer, unassigned) [Compound 116a] | < 20 | –
4 | Cc1ccc(C#N)c(N2C[C@@H](C#N)N(c3cncc4ccccc34)C2=O)c1 (single isomer, unassigned) [Compound 116b] | 200 to 1000 | –
5 | N#Cc1cnc(C(F)(F)F)cc1N1C[C@H](C#N)N(c2cncc3ccccc23)C1=O (single isomer, unassigned) [Compound 117a] | < 20 | –
6 | N#Cc1cnc(C(F)(F)F)cc1N1C[C@@H](C#N)N(c2cncc3ccccc23)C1=O (single isomer, unassigned) [Compound 117b] | 200 to 1000 | –
7 | Cc1c[nH]c(N2C[C@H](C#N)N(c3cncc4ccccc34)C2=O)n1 (single isomer, unassigned) [Compound 118a] | 200 to 1000 | –
8 | Cc1c[nH]c(N2C[C@@H](C#N)N(c3cncc4ccccc34)C2=O)n1 (single isomer, unassigned) [Compound 118b] | > 1000 | –
9 | N#C[C@H]1CN(c2nc(Cl)c[nH]2)C(=O)N1c1cncc2ccccc12 (single isomer, unassigned) [Compound 119a] | 20 to 200 | –
10 | N#C[C@@H]1CN(c2nc(Cl)c[nH]2)C(=O)N1c1cncc2ccccc12 (single isomer, unassigned) [Compound 119b] | > 1000 | –
11 | CC1CC(N2CC(C#N)N(c3cncc4ccccc34)C2=O)C1 (single isomer, unassigned) [Compound 120a] | < 20 | –
12 | CC1CC(N2CC(C#N)N(c3cncc4ccccc34)C2=O)C1 (single isomer, unassigned) [Compound 120c] | – | > 1000
13 | CC1CC(N2CC(C#N)N(c3cncc4ccccc34)C2=O)C1 (single isomer, unassigned) [Compound 120d] | > 1000 | –
14 | N#CC1CN(C2CCC(F)CC2)C(=O)N1c1cncc2ccccc12 (single isomer, unassigned) [Compound 121a] | < 20 | –
15 | N#CC1CN(C2CCC(F)CC2)C(=O)N1c1cncc2ccccc12 (single isomer, unassigned) [Compound 121b] | – | < 20
16 | N#CC1CN(C2CCC(F)CC2)C(=O)N1c1cncc2ccccc12 (single isomer, unassigned) [Compound 121d] | > 1000 | –
17 | N#C[C@H]1CN(C2CC3(CCC3)C2)C(=O)N1c1cncc2ccccc12 (single isomer, unassigned) [Compound 122a] | < 20 | –
18 | N#C[C@@H]1CN(C2CC3(CCC3)C2)C(=O)N1c1cncc2ccccc12 (single isomer, unassigned) [Compound 122b] | > 1000 | –
19 | N#C[C@H]1CN(C2CC3(CC3)C2)C(=O)N1c1cncc2ccccc12 (single isomer, unassigned) [Compound 125a] | < 20 | –
20 | N#C[C@@H]1CN(C2CC3(CC3)C2)C(=O)N1c1cncc2ccccc12 (single isomer, unassigned) [Compound 125b] | > 1000 | –
21 | CC1(C)CC(N2C[C@H](C#N)N(c3cncc4ccccc34)C2=O)C1 (single isomer, unassigned) [Compound 126a] | < 20 | –
22 | CC1(C)CC(N2C[C@@H](C#N)N(c3cncc4ccccc34)C2=O)C1 (single isomer, unassigned) [Compound 126b] | > 1000 | –
23 | N#C[C@H]1CN(C2CC3(C2)CC(F)(F)C3)C(=O)N1c1cncc2ccccc12 (single isomer, unassigned) [Compound 127a] | < 20 | –
24 | N#C[C@@H]1CN(C2CC3(C2)CC(F)(F)C3)C(=O)N1c1cncc2ccccc12 (single isomer, unassigned) [Compound 127b] | > 1000 | –
25 | N#C[C@H]1CN(C2CN(S(=O)(=O)C(F)(F)F)C2)C(=O)N1c1cncc2ccccc12 (single isomer, unassigned) [Compound 129a] | 20 to 200 | –
26 | N#C[C@@H]1CN(C2CN(S(=O)(=O)C(F)(F)F)C2)C(=O)N1c1cncc2ccccc12 (single isomer, unassigned) [Compound 129b] | > 1000 | –

Row | SMILES | IC50 [1] [nM] | IC50 [2] [nM]
27 | CS(=O)(=O)N1CC(N2C[C@H](C#N)N(c3cncc4ccccc34)C2=O)C1 (single isomer, unassigned) [Compound 130a] | 200 to 1000 | –
28 | CS(=O)(=O)N1CC(N2C[C@@H](C#N)N(c3cncc4ccccc34)C2=O)C1 (single isomer, unassigned) [Compound 130b] | > 1000 | –
29 | N#C[C@H]1CN(C2CN(S(=O)(=O)C3CC3)C2)C(=O)N1c1cncc2ccccc12 (single isomer, unassigned) [Compound 131a] | – | 20 to 200
30 | N#C[C@@H]1CN(C2CN(S(=O)(=O)C3CC3)C2)C(=O)N1c1cncc2ccccc12 (single isomer, unassigned) [Compound 131b] | – | > 1000
31 | N#C[C@H]1CN(C2CN(CC(F)(F)F)C2)C(=O)N1c1cncc2ccccc12 (single isomer, unassigned) [Compound 133a] | < 20 | –
32 | N#C[C@@H]1CN(C2CN(CC(F)(F)F)C2)C(=O)N1c1cncc2ccccc12 (single isomer, unassigned) [Compound 133b] | 20 to 200 | –
33 | CC(=O)N1CC(N2C[C@H](C#N)N(c3cncc4ccccc34)C2=O)C1 (single isomer, unassigned) [Compound 134a] | 200 to 1000 | –
34 | CC(=O)N1CC(N2C[C@@H](C#N)N(c3cncc4ccccc34)C2=O)C1 (single isomer, unassigned) [Compound 134b] | > 1000 | –
35 | N#C[C@H]1CN(C2CN(C3CC3)C2)C(=O)N1c1cncc2ccccc12 (single isomer, unassigned) [Compound 136a] | < 20 | –
36 | N#C[C@@H]1CN(C2CN(C3CC3)C2)C(=O)N1c1cncc2ccccc12 (single isomer, unassigned) [Compound 136b] | > 1000 | –
37 | N#C[C@H]1CN(C23CC(C(F)(F)F)(C2)C3)C(=O)N1c1cncc2ccccc12 (single isomer, unassigned) [Compound 137a] | < 20 | –
38 | N#C[C@@H]1CN(C23CC(C(F)(F)F)(C2)C3)C(=O)N1c1cncc2ccccc12 (single isomer, unassigned) [Compound 137b] | > 1000 | –
39 | N#C[C@H]1CN(C2CCC(F)(F)CC2)C(=O)N1c1cncc2ccccc12 (single isomer, unassigned) [Compound 138a] | < 20 | –
40 | N#C[C@@H]1CN(C2CCC(F)(F)CC2)C(=O)N1c1cncc2ccccc12 (single isomer, unassigned) [Compound 138b] | > 1000 | –
41 | N#C[C@H]1CN(C23CC(F)(C2)C3)C(=O)N1c1cncc2ccccc12 (single isomer, unassigned) [Compound 139a] | < 20 | –
42 | N#C[C@@H]1CN(C23CC(F)(C2)C3)C(=O)N1c1cncc2ccccc12 (single isomer, unassigned) [Compound 139b] | > 1000 | –
43 | CC(C)(C)CN1C[C@H](C#N)N(c2cncc3ccccc23)C1=O (single isomer, unassigned) [Compound 140a] | 20 to 200 | –
44 | CC(C)(C)CN1C[C@@H](C#N)N(c2cncc3ccccc23)C1=O (single isomer, unassigned) [Compound 140b] | > 1000 | –
45 | N#C[C@H]1CN(C2CCC(F)(F)C2)C(=O)N1c1cncc2ccccc12 (single isomer, unassigned) [Compound 141a, (R)-1-((S)-3,3-difluorocyclopentyl)-3-(isoquinolin-4-yl)-2-oxoimidazolidine-4-carbonitrile or (R)-1-((R)-3,3-difluorocyclopentyl)-3-(isoquinolin-4-yl)-2-oxoimidazolidine-4-carbonitrile] | 20 to 200 | –
46 | N#C[C@@H]1CN([C@H]2CCC(F)(F)C2)C(=O)N1c1cncc2ccccc12 (single isomer, unassigned) [Compound 141b, (S)-1-((S)-3,3-difluorocyclopentyl)-3-(isoquinolin-4-yl)-2-oxoimidazolidine-4-carbonitrile or (S)-1-((R)-3,3-difluorocyclopentyl)-3-(isoquinolin-4-yl)-2-oxoimidazolidine-4-carbonitrile] | > 1000 | –
47 | N#C[C@@H]1CN(C2CCC(F)(F)C2)C(=O)N1c1cncc2ccccc12 (single isomer, unassigned) [Compound 141c, (S)-1-((S)-3,3-difluorocyclopentyl)-3-(isoquinolin-4-yl)-2-oxoimidazolidine-4-carbonitrile or (S)-1-((R)-3,3-difluorocyclopentyl)-3-(isoquinolin-4-yl)-2-oxoimidazolidine-4-carbonitrile] | > 1000 | –
48 | N#C[C@H]1CN([C@H]2CCC(F)(F)C2)C(=O)N1c1cncc2ccccc12 (single isomer, unassigned) [Compound 141d, (R)-1-((S)-3,3-difluorocyclopentyl)-3-(isoquinolin-4-yl)-2-oxoimidazolidine-4-carbonitrile or (R)-1-((R)-3,3-difluorocyclopentyl)-3-(isoquinolin-4-yl)-2-oxoimidazolidine-4-carbonitrile] | 20 to 200 | –
49 | N#CC1CN(C2CCCC(F)(F)C2)C(=O)N1c1cncc2ccccc12 (stereo not shown) [Compound 29, 1-(3,3-difluorocyclohexyl)-3-(isoquinolin-4-yl)-2-oxoimidazolidine-4-carbonitrile] | 20 to 200 | –
50 | CC(C)(O)c1ccc2cncc(N3C(=O)N(c4cccc(Cl)c4)CC3C#N)c2c1 (stereo not shown) [Compound 34, 1-(3-chlorophenyl)-3-(6-(2-hydroxypropan-2-yl)isoquinolin-4-yl)-2-oxoimidazolidine-4-carbonitrile] | < 20 | –
51 | N#CC1CN(c2cccc(Cl)c2)C(=O)N1c1cncc2ccc(C(N)=O)cc12 (stereo not shown) [Compound 35, 4-(3-(3-chlorophenyl)-5-cyano-2-oxoimidazolidin-1-yl)isoquinoline-6-carboxamide] | < 20 | –
52 | COCCNC(=O)c1ccc2cncc(N3C(=O)N(c4cccc(Cl)c4)CC3C#N)c2c1 (stereo not shown) [Compound 36, 4-(3-(3-chlorophenyl)-5-cyano-2-oxoimidazolidin-1-yl)-N-(2-methoxyethyl)isoquinoline-6-carboxamide] | 20 to 200 | –
